Experimental findings from US8642544B2, “N-terminus conformationally constrained GLP-1 receptor agonist compounds” (Amylin Pharmaceuticals, LLC, priority 2009, dated 2014) are described below.

One assay deals with T1, GLP-1 receptor (Rattus norvegicus, UniProt P32301).
T1 construct: 96-well assay plate containing RIN m5f cell membranes in an ATP/GTP mixture; endogenous in cells; host or cells: RIN m5f cell membranes
T1 sequence (P32301 22-463): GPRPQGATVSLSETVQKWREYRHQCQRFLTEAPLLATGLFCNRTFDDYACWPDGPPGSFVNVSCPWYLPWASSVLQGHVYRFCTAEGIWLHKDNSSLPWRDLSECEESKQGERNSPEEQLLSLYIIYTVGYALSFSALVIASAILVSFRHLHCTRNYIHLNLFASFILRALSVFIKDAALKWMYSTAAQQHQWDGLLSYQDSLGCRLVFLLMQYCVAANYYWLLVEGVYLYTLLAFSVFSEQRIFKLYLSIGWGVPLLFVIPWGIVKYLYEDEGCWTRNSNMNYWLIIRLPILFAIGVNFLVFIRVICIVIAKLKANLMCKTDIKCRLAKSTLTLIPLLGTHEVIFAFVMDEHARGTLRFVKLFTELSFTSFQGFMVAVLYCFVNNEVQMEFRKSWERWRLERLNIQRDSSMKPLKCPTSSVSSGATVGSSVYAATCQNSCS
Nature of the assay: in vitro functional assay at the GLP-1 receptor (cyclase, cAMP production in RIN m5f cell membranes). The format is biochemical. Particulars: Cyclase GLP-1 Receptor EC50 (nM), Table 1; RIN m5f cell membranes, cAMP production (AlphaScreen). As to the method: The compounds shown in Table 1 below were analyzed in an in vitro functional assay at the GLP-1 receptor. The assay was conducted as follows: Membrane fractions were prepared from confluent cultures of RIN m5f cells. Compounds were serially diluted with an assay buffer, and then added to a 96-well assay plate containing RIN m5f cell membranes in an ATP/GTP mixture. Cyclase activities were determined by measuring the production of cAMP induced through GLP-1 receptor activation. Quantification of cAMP production was achieved through a competitive chemiluminescence assay with a biotinylated-cAMP probe using Perkin Elmer Fusion™-Alpha Microplate Analyzer (AlphaScreen™ technology). The compound EC50 values were obtained through fitting the concentration-response curves to a four-parameter logistic equation within GraphPad PRISM® software.
A general note: Cyclic AMP is a second messenger, typically raised through Gs and lowered through Gi signalling.

The subject of a further assay is NIH/Swiss female mice. Description: in vivo basal glucose lowering assay. Particulars: subcutaneous injection. As to the method:
Some compounds shown in Table 1 below were analyzed in an in vivo basal glucose lowering assay using the following procedure: A subcutaneous injection of either 200 μl phosphate-buffered saline (PBS) vehicle or test article was given immediately following baseline glucose (t=0) to NIH/Swiss female mice. Tail blood glucose samples were measured at t=2 and 4 hours post dose using a OneTouch® Ultra® (LifeScan, Inc., a Johnson & Johnson Company, Milpitas, Calif.). Body weight was measured daily. Significant test sample effects were identified by ANOVA (p<0.05), followed by Dunnett's post test using GraphPad Prism version 4.00 for Windows (GraphPad Software, San Diego Calif.).

Where [1] appears, read: Table 1, result in words (inactive / similar to GLP-1).
Setting [2] is: Table 1, time in hours, tail blood glucose at t=2 and 4 hours post dose.

A word on the EC50: it is the concentration that produces a half-maximal response. Higher therefore signals weaker potency. `CC[C@H](C)[C@H](NC(=O)[C@H](Cc1ccccc1)NC(=O)[C@H](CC(C)C)NC(=O)[C@H](CCCNC(=N)N)NC(=O)[C@@H](NC(=O)[C@H](C)NC(=O)[C@H](CCC(=O)O)NC(=O)[C@H](CCC(=O)O)NC(=O)[C@H](CCC(=O)O)NC(=O)[C@H](CC(C)C)NC(=O)[C@H](CCC(N)=O)NC(=O)[C@H](CCCCN)NC(=O)[C@H](CO)NC(=O)[C@H](CC(C)C)NC(=O)[C@H](CC(=O)O)NC(=O)[C@H](CO)NC(=O)[C@@H](NC(=O)[C@H](Cc1ccccc1)NC(=O)[C@@H](NC(=O)CN1C[C@H](CC(=O)O)[C@H](NC(=O)[C@H](C)NC(=O)[C@@H](N)Cc2c[nH]cn2)C1=O)[C@@H](C)O)[C@@H](C)O)C(C)C)C(=O)N[C@@H](CCC(=O)O)C(=O)N[C@@H](Cc1c[nH]c2ccccc12)C(=O)N[C@@H](CC(C)C)C(=O)N[C@@H](CCCCN)C(=O)N[C@@H](CCC(N)=O)C(=O)NCC(=O)NCC(=O)N1CCC[C@H]1C(=O)N[C@@H](CO)C(=O)N[C@@H](CCCCN)C(=O)N[C@@H](CCC(=O)O)C(=O)N[C@H](C(=O)N[C@H](C(=O)N[C@@H](CO)C(=O)O)[C@@H](C)CC)[C@@H](C)CC` [16D] yielded an EC50 on GLP-1 receptor of 1 nM. Besides, the “In Vivo Glucose-Lowering Assay” value in the assay with NIH/Swiss female mice (setting [1]) was “inactive”.
The like results for `CC[C@H](C)[C@H](NC(=O)[C@H](Cc1ccccc1)NC(=O)[C@H](CC(C)C)NC(=O)[C@H](CCCNC(=N)N)NC(=O)[C@@H](NC(=O)[C@H](C)NC(=O)[C@H](CCC(=O)O)NC(=O)[C@H](CCC(=O)O)NC(=O)[C@H](CCC(=O)O)NC(=O)[C@H](CC(C)C)NC(=O)[C@H](CCC(N)=O)NC(=O)[C@H](CCCCN)NC(=O)[C@H](CO)NC(=O)[C@H](CC(C)C)NC(=O)[C@H](CC(=O)O)NC(=O)[C@H](CO)NC(=O)[C@@H](NC(=O)[C@H](Cc1ccccc1)NC(=O)[C@@H](NC(=O)[C@@H]1CSC2[C@H](CC(=O)O)[C@H](NC(=O)[C@H](C)NC(=O)[C@@H](N)Cc3c[nH]cn3)C(=O)N21)[C@@H](C)O)[C@@H](C)O)C(C)C)C(=O)N[C@@H](CCC(=O)O)C(=O)N[C@@H](Cc1c[nH]c2ccccc12)C(=O)N[C@@H](CC(C)C)C(=O)N[C@@H](CCCCN)C(=O)N[C@@H](CCC(N)=O)C(=O)NCC(=O)NCC(=O)N1CCC[C@H]1C(=O)N[C@@H](CO)C(=O)N[C@@H](CCCCN)C(=O)N[C@@H](CCC(=O)O)C(=O)N[C@H](C(=O)N[C@H](C(=O)N[C@@H](CO)C(=O)O)[C@@H](C)CC)[C@@H](C)CC` (some centres unmarked) [16A] were, in that order, 0.52 nM and “inactive”.
At GLP-1 receptor, `CC[C@H](C)[C@H](NC(=O)[C@H](Cc1ccccc1)NC(=O)[C@H](CC(C)C)NC(=O)[C@H](CCCNC(=N)N)NC(=O)[C@@H](NC(=O)[C@H](C)NC(=O)[C@H](CCC(=O)O)NC(=O)[C@H](CCC(=O)O)NC(=O)[C@H](CCC(=O)O)NC(=O)[C@H](CC(C)C)NC(=O)[C@H](CCC(N)=O)NC(=O)[C@H](CCCCN)NC(=O)[C@H](CO)NC(=O)[C@H](CC(C)C)NC(=O)[C@H](CC(=O)O)NC(=O)[C@H](CO)NC(=O)[C@@H](NC(=O)[C@H](Cc1ccccc1)NC(=O)[C@@H](NC(=O)CNC(=O)[C@@H]1CCCN1C(=O)CNC(=O)[C@@H](N)Cc1c[nH]cn1)[C@@H](C)O)[C@@H](C)O)C(C)C)C(=O)N[C@@H](CCC(=O)O)C(=O)N[C@@H](Cc1ccccc1)C(=O)N[C@@H](CC(C)C)C(=O)N[C@@H](CCCCN)C(=O)N[C@@H](CC(N)=O)C(N)=O` [5B] returned an EC50 of 0.53 nM. Also, the “In Vivo Glucose-Lowering Assay” value with NIH/Swiss female mice (setting [2]) was “more than 4 hours”.
Compound `CC[C@H](C)[C@H](NC(=O)[C@H](Cc1ccccc1)NC(=O)[C@H](CC(C)C)NC(=O)[C@H](CCCNC(=N)N)NC(=O)[C@@H](NC(=O)[C@H](C)NC(=O)[C@H](CCC(=O)O)NC(=O)[C@H](CCC(=O)O)NC(=O)[C@H](CCC(=O)O)NC(=O)[C@H](CC(C)C)NC(=O)[C@H](CCC(N)=O)NC(=O)[C@H](CCCCN)NC(=O)[C@H](CO)NC(=O)[C@H](CC(C)C)NC(=O)[C@H](CC(=O)O)NC(=O)[C@H](CO)NC(=O)[C@@H](NC(=O)[C@H](Cc1ccccc1)NC(=O)[C@@H](NC(=O)CNC(=O)[C@@H]1CSCN1C(=O)[C@@H](C)NC(=O)[C@@H](N)Cc1c[nH]cn1)[C@@H](C)O)[C@@H](C)O)C(C)C)C(=O)N[C@@H](CCC(=O)O)C(=O)N[C@@H](Cc1ccccc1)C(=O)N[C@@H](CC(C)C)C(=O)N[C@@H](CCCCN)C(=O)N[C@@H](CC(N)=O)C(N)=O` [9D] came in with an EC50 at GLP-1 receptor of 0.01 nM. In the assay on NIH/Swiss female mice (setting [2]), the “In Vivo Glucose-Lowering Assay” value was “more than 4 hours”.
